The NIST ThermoML archive (doi:10.1016/j.jct.2013.01.032)

Columns and labels:
[1] = mn = molality of the nth substance listed, in mol/kg; conditions: 101 kPa, Liquid; for speed of sound: Sing-around technique in a fixed-path interferometer; for mass density: Vibrating tube method
[2] = osmotic coefficient (dimensionless); mn = molality of the nth substance listed, in mol/kg; conditions: 323.15 K, Liquid, Knauer Osmometer

CCCCn1cc[n+](C)c1.O=S(=O)([O-])C(F)(F)F [1-butyl-3-methylimidazolium trifluoromethanesulfonate] + CCCO
[1]
Conditions | mass density, 293.15 K [kg/m3] | mass density, 308.15 K [kg/m3] | mass density, 323.15 K [kg/m3] | speed of sound, 293.15 K [m/s] | speed of sound, 308.15 K [m/s] | speed of sound, 323.15 K [m/s]
m1 = 0.05 | 808.59 | 796.51 | 784.03 | 1225.2 | 1174.1 | 1123.8
m1 = 0.101 | 813.12 | 801.04 | 788.57 | 1225.9 | 1175.1 | 1125.1
m1 = 0.15 | 817.38 | 805.31 | 792.86 | 1226.2 | 1176 | 1126.3
m1 = 0.2 | 821.64 | 809.57 | 797.12 | 1226.7 | 1176.8 | 1127.3
m1 = 0.25 | 825.82 | 813.75 | 801.31 | 1227.4 | 1177.6 | 1128.4
m1 = 0.758 | 864.71 | 852.6 | 840.18 | 1232.4 | 1184.8 | 1137.7
m1 = 1.004 | 881.36 | 869.23 | 856.81 | 1235 | 1188.2 | 1141.9
m1 = 1.258 | 897.18 | 885.04 | 872.62 | 1237.6 | 1191.7 | 1146.2
m1 = 1.524 | 912.6 | 900.41 | 887.99 | 1241.2 | 1195.4 | 1150.5
m1 = 1.771 | 925.96 | 913.75 | 901.33 | 1243.6 | 1198.7 | 1154.5
m1 = 2.021 | 938.44 | 926.22 | 913.81 | 1246.4 | 1202 | 1158.4
m1 = 2.517 | 960.93 | 948.73 | 936.31 | 1251.9 | 1208.4 | 1165.7
m1 = 3.011 | 981.02 | 968.77 | 956.37 | 1257.1 | 1214.8 | 1172.9

[2]
Conditions | osmotic coefficient
m1 = 0.0299 | 0.906
m1 = 0.0473 | 0.817
m1 = 0.0849 | 0.775
m1 = 0.0975 | 0.755
m1 = 0.2019 | 0.66
m1 = 0.2968 | 0.612
m1 = 0.4022 | 0.575
m1 = 0.5062 | 0.549
m1 = 0.8045 | 0.494
m1 = 1.206 | 0.445
m1 = 1.64 | 0.412
m1 = 2.044 | 0.39
m1 = 2.44 | 0.378
m1 = 2.829 | 0.361
m1 = 3.316 | 0.34
